{"source": "patent US20230143612A1", "about": "(Arbutus Biopharma Corporation, priority 2020, published 2023)"}
{"biological_target": "PD-L1 His protein / PD-1 Fc protein (Homo sapiens, UniProt Q9NZQ7)", "sequence (Q9NZQ7 19-238 limits assumed)": "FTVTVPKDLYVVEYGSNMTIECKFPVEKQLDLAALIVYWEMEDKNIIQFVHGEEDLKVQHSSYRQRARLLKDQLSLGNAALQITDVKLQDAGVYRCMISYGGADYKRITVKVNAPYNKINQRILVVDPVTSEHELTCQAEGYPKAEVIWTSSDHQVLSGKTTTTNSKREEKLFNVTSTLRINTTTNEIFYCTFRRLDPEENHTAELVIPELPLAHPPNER", "assay": "HTRF Assay (PD-1/PD-L1 interaction)", "assay_type": "binding", "conditions": "PD-L1 His 6 nM, PD-1 Fc 6 nM", "method_in_brief": "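HTRF: PD-L1 His (6 nM final), compound (3-fold dilutions, 20 μM to 0.001 μM final) and PD-1 Fc (6 nM final) preincubated 15 min at room temperature. Anti-human IgG-XL665 and anti-6HIS Tb cryptate (mixed at 6.7 nM and 0.35 nM) then added for 1 h at room temperature before reading.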", "units": {"IC50": "nM"}}
{"smiles": "COc1nc(-c2cccc(-c3cccc(-c4cc5c(=O)n(C)c(CNC[C@@H]6CCCO6)nn5c4)c3Cl)c2Cl)ccc1CNC[C@@H]1CCC(=O)N1", "note": "[Example 474, 6-[2-Chloro-3-[2-chloro-3-[6-methoxy-5-[[[(2S)-5-oxopyrrolidin-2-yl]methylamino]methyl]-2-pyridyl]phenyl]phenyl]-3-methyl-2-[[[(2S)-tetrahydrofuran-2-yl]methylamino]methyl]pyrrolo[2,1-f][1,2,4]triazin-4-one]", "IC50": 21}
{"smiles": "COC(=O)C[C@H](O)CNCc1ccc(-c2cccc(-c3cccc(-c4ccn5c(=O)c(CNC[C@@H](O)CC(=O)OC)cnc5c4)c3Cl)c2Cl)nc1OC", "note": "[Example 231, Methyl (3S)-4-[[6-[2-chloro-3-[2-chloro-3-[3-[[[(2S)-2-hydroxy-4-methoxy-4-oxo-butyl]amino]methyl]-4-oxo-pyrido[1,2-a]pyrimidin-8-yl]phenyl]phenyl]-2-methoxy-3-pyridyl]methylamino]-3-hydroxy-butanoate]", "IC50": 120}
{"smiles": "COc1nc(-c2cccc(-c3cccc(-c4ccn5c(=O)c(CNC[C@@H](O)CC(N)=O)cnc5c4)c3Cl)c2Cl)cc(F)c1CNC[C@@H]1CCC(=O)N1", "note": "[Example 275, (3S)-4-[[8-[2-Chloro-3-[2-chloro-3-[4-fluoro-6-methoxy-5-[[[(2S)-5-oxopyrrolidin-2-yl]methylamino]methyl]-2-pyridyl]phenyl]phenyl]-4-oxo-pyrido[1,2-a]pyrimidin-3-yl]methylamino]-3-hydroxy-butanamide]", "IC50": 0.1}
{"smiles": "COc1nc(-c2cccc(-c3cccc(-c4ccn5c(=O)c(CN(C)C[C@@H]6CCC(=O)N6)cnc5c4)c3C)c2Cl)ccc1CN1CC(O)C1", "note": "[Example 55, (S)-8-(2′-Chloro-3′-(5-((3-hydroxyazetidin-1-yl)methyl)-6-methoxypyridin-2-yl)-2-methyl-[1,1′-biphenyl]-3-yl)-3-((methyl((5-oxopyrrolidin-2-yl)methyl)amino)methyl)-4H-pyrido[1,2-a]pyrimidin-4-one]", "IC50": 43}
{"smiles": "COc1nc(-c2cccc(-c3cccc(-c4cnc5c(Cl)c(CNC[C@@H]6CCC(=O)N6)sc5c4)c3Cl)c2Cl)ccc1CNC[C@@H]1CCC(=O)N1", "note": "[Example 123, (S)-5-((((3-Chloro-6-(2,2′-dichloro-3′-(6-methoxy-5-(((((S)-5-oxopyrrolidin-2-yl)methyl)amino)methyl)pyridin-2-yl)-[1,1′-biphenyl]-3-yl)thieno[3,2-b]pyridin-2-yl)methyl)amino)methyl)pyrrolidin-2-one]", "IC50": 0.2}
{"smiles": "COC(=O)[C@H]1CCN(Cc2cnc3cc(-c4cccc(-c5cccc(-c6ccc(CNC[C@@H]7CCC(=O)N7)c(OC)n6)c5Cl)c4Cl)ccn3c2=O)C1", "note": "[Example 192, (S)-Methyl 1-((8-(2,2′-dichloro-3′-(6-methoxy-5-(((((S)-5-oxopyrrolidin-2-yl)methyl)amino)methyl)pyridin-2-yl)-[1,1′-biphenyl]-3-yl)-4-oxo-4H-pyrido[1,2-a]pyrimidin-3-yl)methyl)pyrrolidine-3-carboxylate]", "IC50": 0.8}
{"smiles": "COc1nc(-c2cccc(-c3cccc(-c4ccn5c(=O)c(CNCC6(O)COC6)cnc5c4)c3Cl)c2Cl)ccc1CNC[C@@H]1CCC(=O)N1", "note": "[Example 243, (S)-8-(2,2′-dichloro-3′-(6-methoxy-5-((((5-oxopyrrolidin-2-yl)-methyl)-amino)-methyl)pyridin-2-yl)-[1,1′-biphenyl]-3-yl)-3-((((3-hydroxyoxetan-3-yl)methyl)-amino)-methyl)-4H-pyrido[1,2-a]-pyrimidin-4-one]", "IC50": 0.3}
{"smiles": "COc1cc(-c2cccc(-c3cccc(-c4ccc(CNC[C@@H]5CCC(=O)N5)c(OC)n4)c3Cl)c2Cl)cc2c1CN(C[C@@H]1CCC(=O)N1)CC2", "note": "[Example 155, (S)-5-((6-(2,2′-Dichloro-3′-(6-methoxy-5-(((((S)-5-oxopyrrolidin-2-yl)methyl)amino)-methyl)pyridin-2-yl)-[1,1′-biphenyl]-3-yl)-8-methoxy-3,4-dihydroisoquinolin-2(1H)-yl)methyl)pyrrolidin-2-one]", "IC50": 0.4}
{"smiles": "COc1cc(-c2cccc(-c3cccc(-c4ccc(CNC[C@@H]5CCC(=O)N5)c(OC)n4)c3Cl)c2Cl)cc2c1CCN(C[C@@H]1CCC(=O)N1)C2", "note": "[Example 424, (S)-5-((((6-(2,2′-Dichloro-3′-(5-methoxy-2-(((S)-5-oxopyrrolidin-2-yl)methyl)-1,2,3,4-tetrahydroisoquinolin-7-yl)-[1,1′-biphenyl]-3-yl)-2-methoxypyridin-3-yl)methyl)amino)methyl)pyrrolidin-2-one]", "IC50": 27}
{"smiles": "CNCCN(C)Cc1cnc2cc(-c3cccc(-c4cccc(-c5ccc(CNC[C@@H]6CCC(=O)N6)c(OC)n5)c4Cl)c3Cl)ccn2c1=O", "note": "[Example 278, (S)-8-(2,2′-dichloro-3′-(6-methoxy-5-((((5-oxopyrrolidin-2-yl)methyl)amino)methyl)pyridin-2-yl)-[1,1′-biphenyl]-3-yl)-3-((methyl(2-(methylamino)ethyl)amino)methyl)-4H-pyrido[1,2-a]pyrimidin-4-one]", "IC50": 0.1}
{"smiles": "COc1nc(-c2cccc(-c3cccc(-c4ccc5ncc(CNC[C@@H]6CCC(=O)N6)n5c4)c3Cl)c2Cl)ccc1CNC[C@@H]1CCC(=O)N1", "note": "[Example 389, (5S)-5-[[[6-[2-Chloro-3-[2-chloro-3-[3-[[[(2S)-5-oxopyrrolidin-2-yl]methylamino]methyl]imidazo[1,2-a]pyridin-6-yl]phenyl]phenyl]-2-methoxy-3-pyridyl]methylamino]methyl]pyrrolidin-2-one]", "IC50": 40}
{"smiles": "CSc1nc(-c2cccc(-c3cccc(-c4ccn5c(=O)c(CNC[C@@H]6CCC(=O)N6)cnc5c4)c3Cl)c2Cl)ccc1CNC[C@@H]1CCC(=O)N1", "note": "[Example 108, 8-(2,2′-Dichloro-3′-(6-(methylthio)-5-(((((S)-5-oxopyrrolidin-2-yl)methyl)amino)methyl)pyridin-2-yl)-[1,1′-biphenyl]-3-yl)-3-(((((S)-5-oxopyrrolidin-2-yl)methyl)amino)methyl)-4H-pyrido[1,2-a]pyrimidin-4-one]", "IC50": 1}
{"smiles": "COc1nc(-c2cccc(-c3cccc(-c4ccn5c(=O)c(CN[C@H]6C[C@](C)(O)C6)cnc5c4)c3Cl)c2Cl)cc(Cl)c1CNC[C@@H]1CCC(=O)N1", "note": "[Example 393, 8-(2,2′-Dichloro-3′-(4-chloro-6-methoxy-5-(((((S)-5-oxopyrrolidin-2-yl)methyl)amino)methyl)pyridin-2-yl)-[1,1′-biphenyl]-3-yl)-3-((((1r,3r)-3-hydroxy-3-methylcyclobutyl)amino)methyl)-4H-pyrido[1,2-a]pyrimidin-4-one]", "IC50": 62}
{"smiles": "COc1nc(-c2cccc(-c3cccc(-c4ccn5c(CNC[C@@H]6CCC(=O)N6)cnc5c4)c3Cl)c2Cl)ccc1CNC[C@@H]1CCC(=O)N1", "note": "[Example 380]", "IC50": 24}
{"smiles": "CNC(=O)CCNCc1cnc2cc(-c3cccc(-c4cccc(-c5ccc(CNC[C@@H]6CCC(=O)N6)c(OC)n5)c4Cl)c3Cl)ccn2c1=O", "note": "[Example 210, (S)-3-(((8-(2,2′-dichloro-3′-(6-methoxy-5-((((5-oxopyrrolidin-2-yl)methyl)amino)methyl)pyridin-2-yl)-[1,1′-biphenyl]-3-yl)-4-oxo-4H-pyrido[1,2-a]pyrimidin-3-yl)methyl)amino)-N-methylpropanamide]", "IC50": 0.1}
